Where two headings read alike, the source gives them in different places.
Legend:
BALB/3T3 = assay: In vitro antiproliferative activity, SRB assay, normal fibroblasts BALB/3T3; assay type: cell-based; details: 72 h, mean ± SD
Source text: (§1) The A549 and MCF7 cell lines were purchased from the European Collection of Authenticated Cell Cultures (ECACC, Salisbury, U.K., 86012804 and 86012803). The LoVo cell line was purchased from the American Type Culture Collection (CCL-229, ATCC, Manassas, VA), and LoVo/DX by courtesy of Prof. E. Borowski (Technical University of Gdańsk, Gdańsk, Poland). The BALB/3T3 cell line was purchased from the American Type Culture Collection (CCL-163, ATCC, Manassas, VA). All of the cell lines are maintained in the Institute of Immunology and Experimental Therapy (IIET), Wroclaw, Poland.
(§2) A549 cells were cultured in a mixture of OptiMEM and Roswell Park Memorial Institute (RPMI) 1640 (1:1) medium (IIET, Wroclaw, Poland), supplemented with 10% fetal bovine serum HyClone (GE Healthcare) and 2 mM L-glutamine (Sigma-Aldrich, Germany). MCF7 cells were cultured in a mixture of Eagle’s medium (IIET, Wroclaw, Poland), supplemented with 10% fetal bovine serum, 2 mM L-glutamine, and insulin (Sigma-Aldrich, Germany). LoVo and LoVo/DX cells were cultured in F12K medium (Corning), supplemented with 10% fetal bovine serum HyClone (GE Healthcare) and 0.1 μg/mL doxorubicin (Accord) for LoVo/DX. BALB/3T3 fibroblasts were cultured in Dulbecco’s medium (Gibco), supplemented with 10% fetal bovine serum (GE Healthcare) and 2 mM L-glutamine (Sigma-Aldrich, Germany). All culture media contained antibiotics: 100 U/mL penicillin (Polfa-Tarchomin, Poland) and 0.1 mg/mL streptomycin (Sigma-Aldrich, Germany). All cell lines were cultured during entire experiment in humid atmosphere at 37 °C and 5% CO2.
(§3) All cell lines were exposed to each tested agent at different concentrations in the range 100–0.00001 μg/mL for 72 h. The cells were also exposed to the reference drug cisplatin (Teva Pharmaceuticals, Poland) and doxorubicin (Accord Healthcare Limited, U.K.). Additionally, all cell lines were exposed to dimethyl sulfoxide (DMSO) (solvent used for tested compounds) (POCh, Poland) at concentrations corresponding to those present in tested agents dilutions. After 72 h, sulforhodamine B (SRB) assay was performed.[57]
(§4) After 72 h of incubation with the tested compounds, the cells were fixed in situ by gently adding cold 50% trichloroacetic acid (TCA) (POCh, Poland) and were incubated at room temperature for 1 h. Then, the wells were washed four times with water and air-dried. Next, 0.1% solution of sulforhodamine B (Sigma-Aldrich, Germany) in 1% acetic acid (POCh, Poland) was added to each well and the plates were incubated at room temperature for 0.5 h. After incubation time, unbound dye was removed by washing plates four times with 1% acetic acid, whereas stain bound to cells was solubilized with 10 mM Tris base (Sigma-Aldrich, Germany). Absorbance of each solution was read at Synergy H4 Hybrid Multi-Mode Microplate Reader (BioTek Instruments) at the 540 nm wavelength.
(§5) IC50 values were calculated in Excel sheet using formulas adapted by Mateusz Psurski fromCheburator 0.4, Dmitry Nevozhay software (version 1.2.0 software by Dmitry Nevozhay, 2004–2014, http://www.cheburator.nevozhay.com, freely available) for each experiment.[58] Compounds at each concentration were tested in triplicate in a single experiment, and each experiment was repeated at least three times independently.

A549 = assay: cells; assay type: cell-based, human; details: for A549 SI: selectivity index = IC50 BALB/3T3 / IC50 A549
Source text: as §1, §2, §3, §4, §5

MCF-7 = assay: cells; assay type: cell-based, human; details: for MCF-7 SI: selectivity index = IC50 BALB/3T3 / IC50 MCF-7
Source text: as §1, §2, §3, §4, §5

LoVo/DX = assay: cells; assay type: cell-based, human; details: for LoVo/DX RI: resistance index = IC50 LoVo/DX / IC50 LoVo; for LoVo/DX SI: selectivity index = IC50 BALB/3T3 / IC50 LoVo/DX
Source text: as §1, §2, §3, §4, §5

LoVo = assay: cells; assay type: cell-based, human; details: for LoVo SI: selectivity index = IC50 BALB/3T3 / IC50 LoVo
Source text: as §1, §2, §3, §4, §5

[1] = Mus musculus, BALB/3T3, normal murine embryonic fibroblasts
[2] = Homo sapiens, A549, 72 h, read-out: A549 IC50 (nM), 72 h exposure, SRB, mean ± SD
[3] = Homo sapiens, MCF7, 72 h, read-out: MCF-7 IC50 (nM)
[4] = Homo sapiens, LoVo/DX, 72 h, read-out: LoVo/DX IC50 (nM), 72 h exposure, SRB, mean ± SD
[5] = Homo sapiens, LoVo, 72 h, read-out: LoVo IC50 (nM)

Structure (SMILES) | IC50 (BALB/3T3; [1]) [nM] | IC50 (A549; [2]) [nM] | A549 SI (A549) | IC50 (MCF-7; [3]) [nM] | MCF-7 SI (MCF-7) | IC50 (LoVo/DX; [4]) [nM] | LoVo/DX RI (LoVo/DX) | LoVo/DX SI (LoVo/DX) | IC50 (LoVo; [5]) [nM] | LoVo SI (LoVo) | IC50 (BALB/3T3; normal murine embryonic fibroblasts) [nM] | IC50 (A549; 72 h exposure, SRB, mean ± SD, read-out: A549 IC50) [nM] | IC50 (MCF-7; 72 h exposure, SRB, mean ± SD, read-out: MCF-7 IC50) [nM] | IC50 (LoVo/DX; 72 h exposure, SRB, mean ± SD, read-out: LoVo/DX IC50) [nM] | IC50 (LoVo; 72 h exposure, SRB, mean ± SD, read-out: LoVo IC50) [nM] | IC50 (LoVo/DX; read-out: LoVo/DX IC50, 72 h exposure, SRB, mean ± SD) [nM] | IC50 (A549; Homo sapiens, A549, 72 h exposure, SRB, mean ± SD, read-out: A549 IC50) [nM] | IC50 (MCF-7; Homo sapiens, MCF7, 72 h exposure, SRB, mean ± SD, read-out: MCF-7 IC50) [nM] | IC50 (LoVo/DX; Homo sapiens, LoVo/DX, 72 h exposure, SRB, mean ± SD, read-out: LoVo/DX IC50) [nM] | IC50 (LoVo; Homo sapiens, LoVo, 72 h exposure, SRB, mean ± SD, read-out: LoVo IC50) [nM]
CNc1ccc2c(cc1=O)[C@@H](N)CCc1cc(OC)c(OC)c(OC)c1-2 [Compound 3, N-deacetyl-10-methylamino-10-demethoxycolchicine] | 16 ± 2.1 | 12 ± 2.3 | 1.3 | 8.1 ± 1.3 | 2.0 | 55 ± 13 | 6.2 | 0.3 | 8.9 ± 1.4 | 1.8 | – | – | – | – | – | – | – | – | – | –
N.N.[Cl][Pt][Cl] [cisplatin, reference compound] | – | – | 0.9 | – | 0.8 | – | 0.7 | 1.1 | – | 0.8 | 3300 ± 970 | 3500 ± 630 | 4400 ± 1200 | 3000 ± 800 | 4100 ± 860 | – | – | – | – | –
CCOC(=O)NCc1cn([C@H]2CCc3cc(OC)c(OC)c(OC)c3-c3ccc(NC)c(=O)cc32)nn1 [Compound 38] | 12 ± 1.6 | 4.8 ± 0.7 | 2.5 | 4.2 ± 0.7 | 2.9 | 840 ± 95 | 110 | <0.1 | 7.7 ± 2.9 | 1.6 | – | – | – | – | – | – | – | – | – | –
CNc1ccc2c(cc1=O)[C@@H](n1cc(COCc3ccccc3)nn1)CCc1cc(OC)c(OC)c(OC)c1-2 [Compound 17] | 11 ± 7.8 | 6.9 ± 5.3 | 1.6 | 6.1 ± 4.8 | 1.8 | 84 ± 42 | 15 | 0.1 | 5.7 ± 4.9 | 1.9 | – | – | – | – | – | – | – | – | – | –
CCCCCCCCCCCCCCCC(=O)NCc1cn([C@H]2CCc3cc(OC)c(OC)c(OC)c3-c3ccc(NC)c(=O)cc32)nn1 [Compound 30] | 290 ± 49 | 16 ± 7.3 | 18.1 | 9.3 ± 2.4 | 31.2 | 7300 ± 1100 | 24 | <0.1 | 300 ± 94 | 1.0 | – | – | – | – | – | – | – | – | – | –
CNc1ccc2c(cc1=O)[C@@H](NC(C)=O)CCc1cc(OC)c(OC)c(OC)c1-2 [Compound 2, 10-N-methylaminocolchicine] | 6 ± 2.3 | 4.4 ± 0.6 | 1.4 | 3.5 ± 0.7 | 1.7 | 230 ± 17 | 43 | <0.1 | 5.4 ± 0.7 | 1.1 | – | – | – | – | – | – | – | – | – | –
CNc1ccc2c(cc1=O)[C@@H](n1cc(COC(=O)CCC(F)(F)F)nn1)CCc1cc(OC)c(OC)c(OC)c1-2 [Compound 25] | 6.7 ± 2.4 | 1.3 ± 0.2 | 5.2 | 1.1 ± 0.4 | 6.1 | 350 ± 56 | 160 | <0.1 | 2.2 ± 1.2 | 3.0 | – | – | – | – | – | – | – | – | – | –
CNc1ccc2c(cc1=O)[C@@H](n1cc(COC(=O)CCNC(=O)OC(C)(C)C)nn1)CCc1cc(OC)c(OC)c(OC)c1-2 [Compound 26] | 6.4 ± 1.4 | 2.4 ± 0.7 | 2.7 | 1.1 ± 0.1 | 5.8 | 700 ± 120 | 240 | <0.1 | 2.9 ± 1.2 | 2.2 | – | – | – | – | – | – | – | – | – | –
CNc1ccc2c(cc1=O)[C@@H](n1cc(C(=O)O)nn1)CCc1cc(OC)c(OC)c(OC)c1-2 [Compound 20] | 2100 ± 750 | 1300 ± 330 | 1.6 | 1200 ± 390 | 1.8 | 3400 ± 890 | 2.8 | 0.6 | 1200 ± 350 | 1.8 | – | – | – | – | – | – | – | – | – | –
CNc1ccc2c(cc1=O)[C@@H](n1cc(COC(=O)c3ccccc3Cl)nn1)CCc1cc(OC)c(OC)c(OC)c1-2 [Compound 27] | 8.7 ± 2 | 2.9 ± 0.6 | 3.0 | 2.4 ± 0.8 | 3.6 | < 100 | 19 | 0.1 | 4.7 ± 1.7 | 1.9 | – | – | – | – | – | 89 ± 18 | – | – | – | –
CNc1ccc2c(cc1=O)[C@@H](n1cc(CNC(=O)OC)nn1)CCc1cc(OC)c(OC)c(OC)c1-2 [Compound 37] | 14 ± 2.4 | 7.2 ± 0.7 | 1.9 | 4.7 ± 0.5 | 3.0 | 1500 ± 240 | 180 | <0.1 | 8.5 ± 2.3 | 1.6 | – | – | – | – | – | – | – | – | – | –
COc1cccc2c1C(=O)c1c(O)c3c(c(O)c1C2=O)C[C@@](O)(C(=O)CO)C[C@@H]3O[C@H]1C[C@H](N)[C@H](O)[C@H](C)O1 [doxorubicin, reference compound] | 12 ± 2.3 | – | 0.1 | – | 0.1 | – | 110 | <0.1 | – | 0.2 | – | – | – | – | – | – | 120 ± 100 | 82 ± 31 | 5800 ± 2200 | 52 ± 13
